Blank lines part the entries; values can stand above or below the molecule they belong to.
Assays:
[1] = Cardiotoxicity in human iPSC derived cardiomyocytes assessed as reduction in beating rate at 10 nM; format: toxicity, cell-based, Cardiac muscle cell
[2] = Cardiotoxicity in human iPSC derived cardiomyocytes assessed as reduction in beating rate at 1 nM; format: toxicity, cell-based, Cardiac muscle cell
Rattus norvegicus [3] = test: Reduction in circulating lymphocytes count in Lewis rat peripheral blood at 2 mg/kg, po measured after 24 hrs by hematology analyzer based analysis; format: functional
[4] = Elimination half-life in Lewis rat at 2 mg/kg, po; format: ADME, organism-based; details: in vivo, read-out: beta t1/2 (converted)
Rattus norvegicus [5] = test: Reduction in circulating lymphocytes count in Lewis rat peripheral blood at 0.1 mg/kg, po measured after 24 hrs by hematology analyzer based analysis; format: functional
Rattus norvegicus [6] = test: Reduction in circulating lymphocytes count in Lewis rat peripheral blood at 0.3 mg/kg, po measured after 24 hrs by hematology analyzer based analysis; format: functional
[7] = Elimination half-life in Lewis rat at 0.3 mg/kg, po; format: ADME, organism-based; details: in vivo, read-out: beta t1/2 (converted)
[8] = Pulmonary toxicity in Lewis rat assessed as elevation of BAL protein content at 2 mg/kg, po; format: organism-based; details: in vivo
Sphingosine kinase 2 [9] = target: T1, Sphingosine kinase 2 (Rattus norvegicus, UniProt A6JB73); test: Drug metabolism in Sprague-Dawley rat assessed as SphK2-mediated compound phosphorylation by measuring ratio of phosphorylated compound to parent compound measured after 24 hrs; format: ADME
T1 sequence (A6JB73 whole entry): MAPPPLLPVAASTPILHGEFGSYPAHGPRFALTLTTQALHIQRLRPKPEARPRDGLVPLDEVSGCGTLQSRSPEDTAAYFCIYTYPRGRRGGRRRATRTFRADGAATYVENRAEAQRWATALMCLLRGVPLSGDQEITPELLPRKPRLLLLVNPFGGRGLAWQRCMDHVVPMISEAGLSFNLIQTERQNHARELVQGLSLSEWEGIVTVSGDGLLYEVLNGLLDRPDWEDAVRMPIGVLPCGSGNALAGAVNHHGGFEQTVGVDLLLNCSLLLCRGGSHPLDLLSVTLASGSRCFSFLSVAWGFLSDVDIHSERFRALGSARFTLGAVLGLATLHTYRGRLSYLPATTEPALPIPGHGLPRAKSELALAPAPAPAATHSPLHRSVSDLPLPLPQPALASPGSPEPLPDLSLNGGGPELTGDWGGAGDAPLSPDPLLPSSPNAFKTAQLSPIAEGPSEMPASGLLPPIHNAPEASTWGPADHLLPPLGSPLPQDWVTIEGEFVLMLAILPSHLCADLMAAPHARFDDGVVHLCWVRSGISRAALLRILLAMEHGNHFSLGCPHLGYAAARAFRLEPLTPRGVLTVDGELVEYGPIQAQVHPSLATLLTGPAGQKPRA

Rattus norvegicus [10] = test: Reduction in circulating lymphocytes count in Lewis rat peripheral blood at 1.5 mg/kg, po measured after 24 hrs by hematology analyzer based analysis; format: functional
Rattus norvegicus [11] = test: Reduction in circulating lymphocytes count in Lewis rat peripheral blood at 0.05 mg/kg, po measured after 24 hrs by hematology analyzer based analysis; format: functional
Rattus norvegicus [12] = test: Reduction in circulating lymphocytes count in Lewis rat peripheral blood at 1 mg/kg, po measured after 24 hrs by hematology analyzer based analysis; format: functional
[13] = Drug metabolism in Cynomolgous monkey assessed as SphK2-mediated compound phosphorylation by measuring ratio of phosphorylated compound to parent compound measured after 24 hrs; format: ADME, Macaca fascicularis; details: cynomolgus monkey
[14] = Pulmonary toxicity in Lewis rat assessed as elevation of BAL protein content at >30XED50, po; details: in vivo
Rattus norvegicus [15] = test: Reduction in circulating lymphocytes count in po dosed Lewis rat peripheral blood measured after 24 hrs by hematology analyzer based analysis; format: functional
Sphingosine kinase 2 [16] = target: T2, Sphingosine kinase 2 (Homo sapiens, UniProt Q9NRA0); test: Drug metabolism in human assessed as SphK2-mediated compound phosphorylation by measuring ratio of phosphorylated compound to parent compound measured after 24 hrs; format: ADME
T2 sequence (Q9NRA0 whole entry): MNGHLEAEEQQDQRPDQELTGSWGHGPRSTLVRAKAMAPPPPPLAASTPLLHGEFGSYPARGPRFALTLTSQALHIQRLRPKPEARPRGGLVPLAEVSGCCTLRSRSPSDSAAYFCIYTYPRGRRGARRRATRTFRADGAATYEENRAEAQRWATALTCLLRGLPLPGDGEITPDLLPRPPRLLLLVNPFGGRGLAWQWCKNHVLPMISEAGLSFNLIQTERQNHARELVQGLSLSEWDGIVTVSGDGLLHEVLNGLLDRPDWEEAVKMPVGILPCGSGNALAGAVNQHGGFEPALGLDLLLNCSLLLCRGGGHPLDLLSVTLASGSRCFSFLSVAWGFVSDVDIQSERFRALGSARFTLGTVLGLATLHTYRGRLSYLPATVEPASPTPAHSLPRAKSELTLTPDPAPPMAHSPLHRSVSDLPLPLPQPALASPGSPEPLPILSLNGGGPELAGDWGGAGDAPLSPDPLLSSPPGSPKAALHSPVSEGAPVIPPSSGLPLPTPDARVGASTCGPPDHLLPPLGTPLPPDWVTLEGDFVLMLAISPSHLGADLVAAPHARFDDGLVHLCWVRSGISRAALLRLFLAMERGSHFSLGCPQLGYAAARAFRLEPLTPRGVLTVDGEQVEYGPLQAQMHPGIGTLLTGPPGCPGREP

[17] = Elimination half-life in po dose Lewis rat; format: ADME, organism-based; details: in vivo, read-out: beta t1/2
Homo sapiens = species: Homo sapiens; test: Reduction in absolute lymphocytes count in human at 1.5 mg/day; format: functional

SMILES: CCCCCC[C@@H]1CCc2cc([C@H]3CC[C@](N)(COP(=O)(O)O)C3)ccc2C1
inhibition at 0.01 µM [1]: 32% | inhibition at 0.001 µM [2]: 1%

half-life [4]: 2760 min
SMILES: N[C@]1(CO)CC[C@H](c2ccc3c(c2)CC[C@@H](COc2ccc(F)cc2)C3)C1
inhibition in vivo at 2 mg/kg (Rattus norvegicus [3]): 74%

half-life [4]: < 600 min
SMILES: COc1ccc(OC[C@@H]2CCc3cc([C@H]4CC[C@](N)(CO)C4)ccc3C2)cc1
inhibition in vivo at 2 mg/kg (Rattus norvegicus [3]): 47%

SMILES: COc1ccccc1CC[C@H]1CCc2cc([C@H]3CC[C@](N)(CO)C3)ccc2C1
inhibition in vivo at 0.1 mg/kg (Rattus norvegicus [5]): 17%

SMILES: COc1cccc(CO[C@H]2CCc3cc([C@H]4CC[C@](N)(CO)C4)ccc3C2)c1
inhibition in vivo at 0.3 mg/kg (Rattus norvegicus [6]): 13%

SMILES: N[C@]1(CO)CC[C@H](c2ccc3c(c2)CC[C@H](COCc2ccccc2)C3)C1
inhibition in vivo at 0.3 mg/kg (Rattus norvegicus [6]): 0%

half-life [7]: 660 min
SMILES: N[C@]1(CO)CC[C@H](c2ccc3c(c2)CC[C@@H](COCc2ccccc2)C3)C1
inhibition in vivo at 0.3 mg/kg (Rattus norvegicus [6]): 49%

SMILES: COc1ccccc1CC[C@@H]1CCc2cc([C@H]3CC[C@](N)(COP(=O)(O)O)C3)ccc2C1
inhibition at 0.01 µM [1]: 27% | inhibition at 0.001 µM [2]: 11%

SMILES: COc1ccccc1OC[C@@H]1CCc2cc([C@H]3CC[C@](N)(COP(=O)(O)O)C3)ccc2C1
inhibition at 0.01 µM [1]: 43% | inhibition at 0.001 µM [2]: 20%

half-life [4]: 2100 min
SMILES: Cc1ccc(OC[C@@H]2CCc3cc([C@H]4CC[C@](N)(CO)C4)ccc3C2)cc1
inhibition in vivo at 2 mg/kg (Rattus norvegicus [3]): 20%

half-life [4]: 840 min
SMILES: COc1ccccc1OC[C@@H]1CCc2cc([C@H]3CC[C@](N)(CO)C3)ccc2C1
inhibition in vivo at 2 mg/kg (Rattus norvegicus [3]): 85%

SMILES: COc1cccc(OC[C@H]2CCc3cc([C@H]4CC[C@](N)(CO)C4)ccc3C2)c1
inhibition in vivo at 0.3 mg/kg (Rattus norvegicus [6]): 70%

SMILES: N[C@]1(CO)CC[C@H](c2ccc3c(c2)CC[C@H](CSc2ccccc2)C3)C1
inhibition in vivo at 0.3 mg/kg (Rattus norvegicus [6]): 29%

SMILES: COc1ccc(OC[C@@H]2CCc3cc([C@H]4CC[C@](N)(CO)C4)ccc3C2)c(F)c1F
inhibition in vivo at 2 mg/kg (Rattus norvegicus [3]): 48%

half-life [4]: 1440 min
SMILES: COc1ccccc1SC[C@@H]1CCc2cc([C@H]3CC[C@](N)(CO)C3)ccc2C1
inhibition in vivo at 2 mg/kg (Rattus norvegicus [3]): 78 to 79% | Activity [8]: 67%

SMILES: COc1cccc(COC[C@@H]2CCc3cc([C@H]4CC[C@](N)(CO)C4)ccc3C2)c1
inhibition in vivo at 0.3 mg/kg (Rattus norvegicus [6]): 40%

SMILES: COc1cccc(OC[C@@H]2CCc3cc([C@H]4CC[C@](N)(COP(=O)(O)O)C4)ccc3C2)c1
inhibition at 0.01 µM [1]: 30% | inhibition at 0.001 µM [2]: 13%

Ratio (Sphingosine kinase 2 [9]): 1.5 | half-life [4]: 1440 min | Ratio [13]: 1.3 | half-life [7]: 1440 min
SMILES: COc1cccc(OC[C@@H]2CCc3cc([C@H]4CC[C@](N)(CO)C4)ccc3C2)c1
inhibition in vivo at 2 mg/kg (Rattus norvegicus [3]): 86% | inhibition in vivo at 1.5 mg/kg (Rattus norvegicus [10]): 81% | inhibition in vivo at 0.05 mg/kg (Rattus norvegicus [11]): 72% | inhibition in vivo at 1 mg/kg (Rattus norvegicus [12]): 80% | inhibition in vivo at 0.3 mg/kg (Rattus norvegicus [6]): 80% | Activity [14]: Non-Toxic | ED50 (Rattus norvegicus [15]): < 0.05 mg/kg

SMILES: COc1ccccc1SC[C@@H]1CCc2cc([C@H]3CC[C@](N)(COP(=O)(O)O)C3)ccc2C1
inhibition at 0.01 µM [1]: 26% | inhibition at 0.001 µM [2]: 16%

SMILES: N[C@]1(COP(=O)(O)O)CC[C@H](c2ccc3c(c2)CC[C@@H](COCc2ccccc2)C3)C1
inhibition at 0.01 µM [1]: 52% | inhibition at 0.001 µM [2]: 16%

SMILES: COc1cccc(CO[C@@H]2CCc3cc([C@H]4CC[C@](N)(CO)C4)ccc3C2)c1
inhibition in vivo at 0.3 mg/kg (Rattus norvegicus [6]): 15%

SMILES: COc1cccc(SC[C@@H]2CCc3cc([C@H]4CC[C@](N)(COP(=O)(O)O)C4)ccc3C2)c1
inhibition at 0.01 µM [1]: 44% | inhibition at 0.001 µM [2]: 30%

SMILES: COc1ccc(OC[C@@H]2CCc3cc([C@H]4CC[C@](N)(CO)C4)ccc3C2)cc1C(C)(C)C
inhibition in vivo at 2 mg/kg (Rattus norvegicus [3]): 53%

half-life [4]: 1200 min
SMILES: N[C@]1(CO)CC[C@H](c2ccc3c(c2)CC[C@@H](CSc2ccccc2)C3)C1
inhibition in vivo at 2 mg/kg (Rattus norvegicus [3]): 73% | inhibition in vivo at 0.3 mg/kg (Rattus norvegicus [6]): 31%

SMILES: COc1ccc(COC[C@@H]2CCc3cc([C@H]4CC[C@](N)(CO)C4)ccc3C2)cc1
inhibition in vivo at 0.3 mg/kg (Rattus norvegicus [6]): 33%

half-life [4]: 1260 min
SMILES: COc1cccc(SC[C@@H]2CCc3cc([C@H]4CC[C@](N)(CO)C4)ccc3C2)c1
inhibition in vivo at 2 mg/kg (Rattus norvegicus [3]): 81%

Ratio (Sphingosine kinase 2 [9]): 2.5 | Ratio (Sphingosine kinase 2 [16]): 0.1 | Ratio [13]: 0.3 | half-life [17]: > 4.17 days
SMILES: CCCCCC[C@@H]1CCc2cc([C@H]3CC[C@](N)(CO)C3)ccc2C1 [BMS-986104]
ED50 (Rattus norvegicus [15]): 0.25 mg/kg

Ratio (Sphingosine kinase 2 [9]): 5.2 | half-life [4]: 1620 min | Ratio (Sphingosine kinase 2 [16]): 0.6 | Ratio [13]: 1
SMILES: COc1ccccc1CC[C@@H]1CCc2cc([C@H]3CC[C@](N)(CO)C3)ccc2C1 [UDIFITIMOD]
inhibition in vivo at 2 mg/kg (Rattus norvegicus [3]): 81% | inhibition (INH) (Homo sapiens): >80% | inhibition in vivo at 0.1 mg/kg (Rattus norvegicus [5]): 53% | ED50 (Rattus norvegicus [15]): 0.1 mg/kg

— ChEMBL document CHEMBL4622995, “Aryl Ether-Derived Sphingosine-1-Phosphate Receptor (S1P1) Modulators: Optimization of the PK, PD, and Safety Profiles” (ACS Med Chem Lett, 2020)
